Data as given in patent US10173999B2, “Cyclic amine derivative and pharmaceutical use thereof” (Toray Industries, Inc., priority 2015, dated 2019).
Counter-ions that a name gives are not always drawn.

Key:
[1] = Stability test in mouse liver microsomes; format: in vitro ADME; details: pH 7.4; mouse liver microsomes 0.5 mg/mL, test compound 2 μmol/L, 37° C., 0-30 min; read-out: Hepatic intrinsic clearance, Mouse
Procedure: Experiment was performed using the compound of Example 11, Comparative Example 1 or Comparative Example 6 as a test compound and human liver microsomes (from Xenotech), monkey liver microsomes (from Xenotech), dog liver microsomes (from Xenotech) or mouse liver microsomes (from Xenotech) as the liver microsomes.
The reagents to be used in the stability test in liver microsomes were prepared as follows. A D-glucose 6-phosphate disodium salt (hereinafter referred to as G6P) was dissolved with distilled water to prepare an aqueous solution of G6P (100 mmol/L). Glucose 6-phosphate dehydrogenase (1000 units) from Yeast (hereinafter referred to as G6PDH) was dissolved with distilled water (5 mL) to prepare an aqueous solution of G6PDH (200 units/mL). MgCl2 was dissolved with distilled water to prepare an aqueous solution of MgCl2 (100 mmol/L). […]
With respect to the chromatogram of each well obtained by LC/MS analysis or LC/MS/MS analysis, the test compound residual ratio (%) at each reaction time t (min) was calculated based on the peak area at the reaction time of 0 minute as 100%. […]

[2] = Pharmacokinetics (PK) test in cynomolgus monkeys; format: in vivo, cynomolgus monkey
Procedure: Cynomolgus monkeys (4 to 6 years old, male) were raised under the conditions of voluntary intake of solid food (Oriental Yeast Co., Ltd) and tap water and fasted from the evening of the day before initiation of administration and subjected to an experiment. Note that blood was sampled at 4 hours after administration (on and after 16:00), and thereafter feeding was restarted.
Dosing solution for intravenous administration was injected through the saphenous vein by use of a syringe needle (attached to a syringe barrel). The oral administration into the stomach was compulsively carried out by inserting a catheter into the nasal cavity.
The blood sampled was centrifuged at 4° C. and 1800×g for 15 minutes to obtain the plasma. The plasma thus obtained was stored at about −80° C. until use in preparation of analysis samples. The plasma obtained from a cynomolgus monkey to which a test compound was administrated, is referred to as a plasma sample; whereas the plasma obtained from a cynomolgus monkey to which a test compound was not administered, is referred to as the blank plasma.
(§1) The resulting solution was vortexed and cooled at 4° C. for 10 minutes. A sample for a calibration curve was prepared by adding a standard solution for a calibration curve to the blank plasma and subjecting the resulting mixture to the same treatment. After cooling, each of the samples was spun at 4° C. and 2000 rpm for 10 minutes by a centrifuge (Hitachi Koki Co., Ltd.). The resulting supernatant was used as a sample for LC/MS/MS analysis.
as §1, with “diluted 10 fold with 70 vol % acetonitrile containing 0.1 vol % formic acid and subjected” for “used”, “analysis. The LC/MS/MS analysis conditions were as follows:” for “analysis.”
The test-compound concentrations in the plasma at each sampling time point in the case of intravenous administration or oral administration were calculated and PK analysis was carried out for individual monkeys. PK parameters were calculated by using WinNonlin (Pharsight), in accordance with an analysis independent of a model (intravenous administration: Bolus IV Administration, oral administration: Extravascular Administration; Weight=1/y in both administrations). Furthermore, bioavailability (BA) was calculated based on the following Expression (3) by dividing AUC0-∞iv (time 0 to ∞) at the time of the intravenous administration and AUC0-∞po (time 0 to ∞) at the time of the oral administration by respective dose values to obtained as normalized values. Bioavailability (BA)=(AUC0-∞,po/dose)/(AUC0-∞,iv/dose) (3)

In the case of `CN(C)C1CCN(C(=O)CCc2nccn2C)CC1` [Comparative Example 1, 1-(4-(dimethylamino)piperidin-1-yl)-3-(1-methyl-1H-imidazol-2-yl)propan-1-one hydrochloride], the microsomal CLint at 2 μmol/L [1] is reported as 4 µL/min/mg.

For `CN(C)C1CCN(C(=O)C[C@H](O)c2nccn2C)CC1` [Example 11, (S)-1-(4-(dimethylamino)piperidin-1-yl)-3-hydroxy-3-(1-methyl-1H-imidazol-2-yl)propan-1-one], the microsomal CLint at 2 μmol/L [1] was 3 µL/min/mg, the “mean plasma concentration after administration compared with Comparative Example 2” value ([2]; cynomolgus monkeys, intravenous and oral 1 mg/kg, all time points) was “higher” and the bioavailability ([2]; male, plasma, cynomolgus monkey, 1 mg/kg oral vs 1 mg/kg intravenous, read-out: BA (bioavailability)) was 52.6%. For the same molecule, the clearance ([2]; male, plasma, cynomolgus monkey, intravenous administration 1 mg/kg, single, read-out: CLtot (total body clearance) (converted)) was 3.25 mL/min/kg, the AUC(0-inf) ([2]; male, plasma, cynomolgus monkey, oral administration 1 mg/kg, single) was 2730 ng·h/mL and the Cmax ([2]; male, plasma, cynomolgus monkey, oral administration 1 mg/kg, single, read-out: Cmax (maximum plasma concentration)) was 279 ng/mL. For the same molecule, the half-life ([2]; male, plasma, cynomolgus monkey, oral administration 1 mg/kg, single, read-out: t1/2 (elimination half-life in the plasma) (converted)) was 7.55 h.
